In patent US20220401465A1, “USES OF NAD+ AND/OR NAD+ INHIBITORS AND/OR NAD+ AGONISTS AND COMBINATION PREPARATION THEREOF” (ShanghaiTech University, priority 2019, published 2022):

Columns and labels:
T cells in PBMC [1] = experiment: CD69 expression on T cells after anti-CD3/CD28 activation of PBMC (flow cytometry); format: cell-based, human
Description: (§1) Human peripheral blood mononuclear cells (PBMC) were diluted 1:1 with fresh blood and normal saline (Meilun Biological MA0083) and then added flat to the upper layer of an equal volume of Histopaque®-1077 (Sigma10771) separation solution. The cells were centrifuged slowly for 30 min at 500 g at room temperature. After centrifugation, the white membrane layer between the plasma and the separation solution was imbibed and washed with normal saline. After repeated washing, the cells were resuspended with 10% FBS (Thermofisher 10099141C) RPMI (Corning10-040-CV) medium for later use.
(§2) The concentration of PBMC cells was adjusted to no more than 0.5 million/ml, and the final concentration of 1 μM FK866 (Selleck S2799), 100 μM NAD+ (Selleck S2518), or 1μM FK866, and 100 μM NAD+ were added respectively. The cells after drug addition were cultured in a cell incubator for 24 hours at 37° C., with 5% CO2.
Highly adsorbed 96-well plates were coated with CD28 (Biolegend 102112), and CD3 (Thermofisher 14-0037-82) antibodies at the final concentration of 0 or 3 μg/ml, the PBMC cells treated with the above different treatments were added to the well plates, respectively. After 24 h stimulation, the cells were collected for CD69 staining. […] After washing with Staining buffer, the cells were resuspended with staining buffer containing DAPI and then detected on BD LSRFortessa. […]

T cells in PBMC [2] = experiment: Intracellular tyrosine phosphorylation after anti-CD3/CD28 activation of PBMC (WB, 4G10 antibody); format: cell-based, human; conditions: 1 μM FK866 24 h, then CD3/CD28 antibody stimulation 5 min, versus solvent
Description: as §1, §2
Highly adsorbed 96-well plates were coated with CD28 (Biolegend 102112), and CD3 (Thermofisher 14-0037-82) antibodies at the final concentration of 0 or 3 μg/ml, the PBMC cells treated with the above different treatments were added to the well plates, respectively. […] WB testing: after cell collection, the cells were lysed to extract proteins, which were then electrophoretically transferred and detected with 4G10 antibody (Millipore16-103) for anti-Phosphotyrosine testing. […]

[3] = test system: K562-CD19-mCherry-luciferase cells; experiment: Subcutaneous K562-CD19-mCherry-luciferase solid tumor model in NSG mice, in vivo imaging and survival; conditions: NAM alone i.p. daily 100 μL at 1 g/ml in saline, versus saline, n=5
Description: In cells with K562-CD19-mCherry, as described previously, luciferase was then overexpressed through the lentiviral system. […] Since subcutaneously injected K562 cells also overexpressed Luciferase, intracellular fluorescence can be excited after intraperitoneal injection of the substrate luciferin (PerkinElmer 122799) in mice, and tumor growth in mice can be collected by in vivo imaging. Before CAR-T cells were injected into the tail vein of mice, the fluorescence signal intensity of mouse tumor cells was detected as the starting point, and then the fluorescence intensity of mouse tumor cells was detected every 7 days. For detection, the mice were intraperitoneally injected with 150 μL of D-luciferin potassium salt at a concentration of 10 mg/ml, and 10 minutes later, the fluorescence of tumor cells was detected using IVIS® LuminaIII small animal in vivo imaging system. The stronger the fluorescence, the more tumor cells and the faster the tumor growth.

SMILES	CD69 on the surface of T cells (T cells in PBMC [1]; PBMC, 1 μM FK866 24 h, then CD3/CD28 antibody stimulation 24 h, versus solvent)	T cell activation ability (T cells in PBMC [1]; concluded from CD69 and phosphorylation levels when NAD+ synthesis was inhibited)	intracellular phosphorylation levels (tyrosine) (T cells in PBMC [2])	effect on the fluorescence intensity and tumor growth of tumor cells [3]
O=C(/C=C/c1cccnc1)NCCCCC1CCN(C(=O)c2ccccc2)CC1 [FK866]	significantly reduced	significantly decreased	significantly reduced	
NC(=O)c1cccnc1 [Nicotinamide (NAM), Nicotinamide]				no significant effect
